# The Deep4Chem optical property database
# Experiment: solvent given as SMILES
smiles,measurement,setting,value
Oc1ccccc1/N=C/c1ccccc1Oc1ccccc1,emission maximum,in C1CCCCC1,413 nm
same,emission maximum,in C1CCOC1,412 nm
same,emission maximum,in C1COCCO1,410 nm
same,emission maximum,in CC#N,410 nm
same,emission maximum,in CC(C)=O,410 nm
same,emission maximum,in CC(C)CO,409 nm
same,emission maximum,in CC(C)O,406 nm
same,emission maximum,in CCCCC,425 nm
same,emission maximum,in CCCCCCCCO,414 nm
same,emission maximum,in CCCCCCCO,410 nm
same,emission maximum,in CCCCCCO,410 nm
same,emission maximum,in CCCCO,395 nm
same,emission maximum,in CCCCOC(C)=O,409 nm
same,emission maximum,in CCCO,410 nm
same,emission maximum,in CCO,408 nm
same,emission maximum,in CCOC(C)=O,400 nm
same,emission maximum,in CCOCC,420 nm
same,emission maximum,in CN(C)C=O,418 nm
same,emission maximum,in CO,414 nm
same,emission maximum,in CS(C)=O,410 nm
same,emission maximum,in Cc1ccccc1,411 nm
same,emission maximum,in Cc1ccccc1C,412 nm
same,emission maximum,in ClC(Cl)Cl,410 nm
same,emission maximum,in ClCCl,415 nm
same,emission maximum,in N#Cc1ccccc1,410 nm
same,emission maximum,in OCCO,415 nm
same,emission maximum,in c1ccccc1,410 nm
F[B-]1(F)OC(c2ccccc2)=Cc2c3ccccc3cc[n+]21,emission maximum,in ClC(Cl)Cl,463.2 nm
C#Cc1ccc(-c2c3nc(c(-c4ccc(C#C)cc4)c4ccc([nH]4)c(-c4cc(C(C)(C)C)cc(C(C)(C)C)c4)c4cc(c(-c5cc(C(C)(C)C)cc(C(C)(C)C)c5)c5ccc2[nH]5)C=N4)C=C3)cc1,emission maximum,in ClCCl,744 nm
C[Si](C)(C)C#Cc1cc2ccc3cc(C#C[Si](C)(C)C)cc4ccc(c1)c2c34,emission maximum,in Cc1ccccc1,407 nm
c1ccc(-c2csc(-c3ccncc3)n2)cc1,emission maximum,in CC#N,498 nm
same,emission maximum,in CCO,407 nm
same,emission maximum,in CN(C)C=O,402 nm
same,emission maximum,in ClCCl,472 nm
COc1cc2c3c4c(c5ccc(C(C)(C)C)cc5c5cc(C(C)(C)C)cc(c2c(OC)c1OC)c45)=[N+]1C3=Nc2c3c4cc(OC)c(OC)c(OC)c4c4cc(C(C)(C)C)cc5c6cc(C(C)(C)C)ccc6c(c3c54)n2[B-]1(F)F,emission maximum,in Cc1ccccc1,832 nm
c1ccc2cc3c4c(ccc3cc2c1)-c1cccc2cccc-4c12,emission maximum,in CCCCCCC,520 nm
c1ccc(-c2nc(-c3ccc(N4CCCC4)cc3)cc(-c3ccc4ccccc4c3)n2)cc1,emission maximum,in ClC(Cl)Cl,498 nm
N#Cc1c(-n2nnc3ccccc32)n([C@H]2C[C@H](O)[C@@H](CO)O2)c2ncnc(N)c12,emission maximum,in CO,416 nm
N#Cc1cc2ccccc2oc1=O,emission maximum,in C1CCCCC1,412 nm
same,emission maximum,in C1CCOC1,409 nm
same,emission maximum,in CC#N,407 nm
same,emission maximum,in CCOC(C)=O,410 nm
same,emission maximum,in CS(C)=O,405 nm
same,emission maximum,in ClC(Cl)Cl,411 nm
CC(=O)Nc1ccc(C2=N/C(=C\c3ccc(C#N)cc3)C(=O)O2)cc1,emission maximum,in C1COCCO1,461 nm
O=C1c2ccccc2C(=O)N1c1ccc(Cn2cncn2)cc1,emission maximum,in C1CCOC1,361 nm
same,emission maximum,in C1COCCO1,313 nm
same,emission maximum,in CC#N,471 nm
same,emission maximum,in CC(C)=O,407 nm
same,emission maximum,in CC(C)O,427 nm
same,emission maximum,in CCCCCC,310 nm
same,emission maximum,in CCCCO,402 nm
same,emission maximum,in CCO,422 nm
same,emission maximum,in CCOC(C)=O,355 nm
same,emission maximum,in CCOCC,339 nm
same,emission maximum,in CN(C)C=O,503 nm
same,emission maximum,in CO,440 nm
same,emission maximum,in CS(C)=O,563 nm
same,emission maximum,in Cc1ccccc1,323 nm
same,emission maximum,in ClCCl,367 nm
CN1/C(=C/C=C(/C=C/c2sc3ccccc3[n+]2C)c2ccccc2)Sc2ccccc21,emission maximum,in CCO,676 nm
same,emission maximum,in CO,679 nm
same,emission maximum,in CS(C)=O,683 nm
same,emission maximum,in O,673 nm
CCCCCCCCCCCC#CC#CCCCCCCCCCN1C(=O)c2ccc3c4ccc5c6c(ccc(c7ccc(c2c37)C1=O)c64)C(=O)N(CCCCCCCCCC#CC#CCCCCCCCCCCCC)C5=O,emission maximum,in ClC(Cl)Cl,535 nm
C(=C(c1ccccc1)c1ccccc1)c1ccc(-c2ccc(C=C(c3ccccc3)c3ccccc3)cc2)cc1,emission maximum,in C1CCOC1,445 nm
Cc1cc(-n2c3ccccc3c3ccccc32)ccc1-c1ccc(S(=O)(=O)c2ccccc2)cc1C,emission maximum,in C1CCOC1,401.77 nm
same,emission maximum,in CC#N,450.48 nm
same,emission maximum,in Cc1ccccc1,349 nm
same,emission maximum,in ClCCl,419.86 nm
CC1(C)c2ccccc2N(c2ccc(-c3nc([C@]45CC6CC(C[C@@H](C6)C4)C5)nc([C@]45C[C@H]6C[C@@H](C[C@H](C6)C4)C5)n3)cc2)c2ccccc21,emission maximum,in CC(C)(C)c1ccc(-n2c3ccc([Si](c4ccccc4)(c4ccccc4)c4ccccc4)cc3c3cc([Si](c4ccccc4)(c4ccccc4)c4ccccc4)ccc32)cc1,450 nm
same,emission maximum,in Cc1ccccc1,469.63 nm
CC(C)(C)c1ccc2cc3c4cccc5cccc(c6cc(C(C)(C)C)cc(c2c1)c63)c54,emission maximum,in CC1CCCCC1,445 nm
Oc1ccc2ccccc2c1/C=N/c1cc2ccccc2cc1/N=C/c1c(O)ccc2ccccc12,emission maximum,in CC#N,509 nm
CC(C)[Si](C#Cc1c2nsnc2c(C#C[Si](C(C)C)(C(C)C)C(C)C)c2nc3c4ccccc4c(=O)c4ccccc4c3nc12)(C(C)C)C(C)C,emission maximum,in ClCCl,594 nm
Cc1ccc2c(c1)C1(c3ccccc3-c3ccccc31)c1cc(C)ccc1N2c1ccc(-c2nc(-c3ccccc3)cc(-c3ccccc3)n2)cc1,emission maximum,in Cc1ccccc1,458 nm
same,emission maximum,in O=P(c1ccccc1)(c1ccccc1)c1ccc2oc3ccc(P(=O)(c4ccccc4)c4ccccc4)cc3c2c1,464 nm
c1cc2ccc3ccc(-n4c5ccccc5c5ccccc54)c4ccc(c1)c2c34,emission maximum,in CCCCCC,407 nm
same,emission maximum,in CCO,398 nm
same,emission maximum,in CCOC(C)=O,398 nm
same,emission maximum,in ClCCl,399 nm
CCCCN(CCCC)c1ccc(/C=C/c2ccc3nc(/C=C/c4ccc(N(C)C)cc4)c(=O)n(CCC)c3c2)cc1,emission maximum,in C1COCCO1,559 nm
same,emission maximum,in CC#N,651 nm
same,emission maximum,in ClCCl,611 nm
Cc1ccc(/C=C(\c2ccccc2)c2nc3ccccc3s2)cc1,emission maximum,in C1CCCCC1,380 nm
same,emission maximum,in CO,410 nm
CC1(C)c2cc(C#N)ccc2-c2ccc(N3c4ccccc4Oc4ccccc43)cc21,emission maximum,in C1CCCCC1,433 nm
same,emission maximum,in C1CCOC1,550 nm
same,emission maximum,in CC#N,620 nm
same,emission maximum,in Cc1ccccc1,487 nm
same,emission maximum,in ClC(Cl)Cl,530 nm
O=Cc1ccc(C#CC(C#Cc2ccc(C=O)o2)=Cc2ccc(C=C(C#Cc3ccc(C=O)o3)C#Cc3ccc(C=O)o3)s2)o1,emission maximum,in ClC(Cl)Cl,577 nm
Clc1ccc2cc3cccc[n+]3cc2c1,emission maximum,in O,408 nm
CCCCCCCCCCCCN1C(=O)c2c(c3ccc4cc(-c5ccc(C(F)(F)F)cc5)c(OC)cc4c3c3c2ccc2cc(-c4ccc(C(F)(F)F)cc4)c(OC)cc23)C1=O,emission maximum,in ClCCl,522 nm
c1ccc(-c2nc(-c3ccccc3)nc(-c3ccc(N4c5ccccc5CCc5ccccc54)cc3)n2)cc1,emission maximum,in Cc1ccccc1,422.22 nm
COc1ccccc1C1=[N+]2C(=Nc3c(-c4ccccc4)cc(-c4ccccc4OC)n3[B-]2(F)F)C(c2ccccc2)=C1,emission maximum,in Cc1ccccc1,688 nm
COC(=O)C1=C(C(=O)OC)C2(c3ccccc3-c3ccccc32)[C@@H](c2ccc(C)cc2)C=C2c3cc(OC)c(OC)cc3CCN21,emission maximum,in ClCCl,425 nm
CC[N+]1(CC)CN2C(C)=CC(C)=C(C(=O)O)C2=N1,emission maximum,in CN(C)C=O,449 nm
same,emission maximum,in O,449 nm
Cc1ccc(-n2c(-c3cccc4cc[n-]c34)[nH+]c3c4ccccc4c4ccccc4c32)cc1,emission maximum,in Cc1ccccc1,566 nm
COc1ccc(/C=C/c2ccncn2)cc1,emission maximum,in ClCCl,418 nm
O=[N+]([O-])c1ccc(O)c(-c2nc3c(c4c2-c2ccccc2CC4)-c2ccccc2CC3)c1,emission maximum,in ClCCl,541 nm
Cc1cc(C)c(C2=C3C=C(/C=C/C(=O)OC(C)(C)C)C=[N+]3[B-](F)(F)n3cc(/C=C/C(=O)OC(C)(C)C)cc32)c(C)c1,emission maximum,in ClCCl,610 nm
Cc1cc(-c2ccc3ccccc3c2)cc(C)[o+]1,emission maximum,in ClCCl,544 nm
Cc1cccc(-c2nc3sc4ccccc4c3s2)c1,emission maximum,in CS(C)=O,412 nm
C(#Cc1nc2ccccc2s1)c1ccc(N(c2ccccc2)c2ccccc2)cc1,emission maximum,in Cc1ccccc1,437 nm
O=Cc1ccc(C#CC(C#Cc2ccc(C=O)s2)=Cc2ccc(C=C(C#Cc3ccc(C=O)s3)C#Cc3ccc(C=O)s3)cc2)s1,emission maximum,in ClC(Cl)Cl,533 nm
O=Cc1ccc(-c2ccc(-c3nc4ccccc4s3)c(O)c2)s1,emission maximum,in CCO,540 nm
same,emission maximum,in ClCCl,535 nm
same,emission maximum,in O,557 nm
COc1ccc(Oc2ccc3c4c(cccc24)C(=O)N(c2c(C(C)C)cccc2C(C)C)C3=O)cc1,emission maximum,in ClCCl,434 nm
COc1ccc(/C=C/c2cc(/C=C/c3ccc(OC)cc3)nc(/C=C/c3ccc(C(F)(F)F)cc3)n2)cc1,emission maximum,in C1CCOC1,436 nm
same,emission maximum,in CC#N,463 nm
same,emission maximum,in CC(C)=O,452 nm
same,emission maximum,in CCCCCCC,398 nm
same,emission maximum,in CS(C)=O,475 nm
same,emission maximum,in Cc1ccccc1,411 nm
same,emission maximum,in ClCCl,441 nm
COc1ccc(C2CC(=O)Oc3c2c2nc4ccccc4nc2c2ccccc32)cc1 (configuration not stated),emission maximum,in ClC(Cl)Cl,449 nm
CC1=C(c2cccs2)C(C)=[N+]2C1=C(c1ccc(O)cc1)c1c(C)c(-c3cccs3)c(C)n1[B-]2(F)F,emission maximum,in CO,602 nm
same,emission maximum,in Cc1ccccc1,604 nm
same,emission maximum,in ClCCl,605 nm
N#Cc1ccc2cc[nH]c2c1,emission maximum,in C1CCOC1,345 nm
same,emission maximum,in C1COCCO1,342 nm
same,emission maximum,in CC#N,354 nm
same,emission maximum,in CC(C)O,356 nm
same,emission maximum,in CCO,358 nm
same,emission maximum,in CO,367 nm
same,emission maximum,in CS(C)=O,363 nm
same,emission maximum,in O,375 nm
same,emission maximum,in OCC(F)(F)F,364 nm
COc1ccc2cc(C#CC3=C4CCc5ccccc5C4=[O+][B-](F)(F)O3)ccc2c1,emission maximum,in ClCCl,566 nm
CCn1c2ccccc2c2cc(C#Cc3cc(C#Cc4ccc5c(c4)c4ccccc4n5CC)ncn3)ccc21,emission maximum,in C1CCOC1,451 nm
same,emission maximum,in CCOC(C)=O,445 nm
same,emission maximum,in CN(C)C=O,502 nm
same,emission maximum,in Cc1ccccc1,411 nm
same,emission maximum,in ClCCl,484 nm
COc1cc(OC)cc(C2=C3C(C)=C(I)C(C)=[N+]3[B-](F)(F)n3c(/C=C/c4c[nH]c5ccccc45)c(I)c(C)c32)c1,emission maximum,in C1CCOC1,668 nm
same,emission maximum,in CS(C)=O,676 nm
same,emission maximum,in ClCCl,661 nm
COc1ccc(-c2c(-c3ccc(OC)cc3)c3c4c(cccc4c2-c2ccccc2)C(=O)c2ccccc2-3)cc1,emission maximum,in CC#N,527 nm
same,emission maximum,in CO,579 nm
